According to the supplement of paper PMC11061612:

Legend:
Experiment in all cases: combination Emax (second highest fraction inhibited in the dose matrix, 72 h); higher = more inhibition; extreme values may be limits of the assay
[1] = system: MOG-G-UVW (Low Grade Glioma)
In short: (§1)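 Cell lines grown in DMEM/F12 or RPMI with 10% FBS were plated in 1536-well plates and held 24 hours at 37°C, 5% CO2 before 72 hours of exposure to two-drug dose matrices, with DMSO typically at 0.2%. CellTiter-Glo 2.0 luminescence gave viability, which was converted to inhibition. Vehicle wells were set to 0 and blank wells to 1. Combination Emax is the second-highest inhibition in the matrix, and Bliss excess is the observed combination effect minus the expected EA + EB − EA·EB, where EA and EB are the single-agent effects.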

[2] = system: Mo-T (Other Blood Carcinomas)
In short: as §1

[3] = system: CADO-ES1 (Ewing's Sarcoma)
In short: as §1

COLO-679 (Melanoma) = system: COLO-679 (Melanoma)
In short: as §1

[4] = system: LC-1-sq (Squamous Cell Lung Carcinoma)
In short: as §1

[5] = system: NCI-H1838 (Lung Adenocarcinoma)
In short: as §1

[6] = system: KGN (Other Solid Carcinomas)
In short: as §1

[7] = system: MOLT-4 (T-Lymphoblastic Leukemia)
In short: as §1

SK-N-AS (Neuroblastoma) = system: SK-N-AS (Neuroblastoma)
In short: as §1

Hey (Ovarian Carcinoma) = system: Hey (Ovarian Carcinoma)
In short: as §1

[8] = system: HCC2998 (Colorectal Carcinoma)
In short: as §1

[9] = system: EFO-21 (Ovarian Carcinoma)
In short: as §1

[10] = system: KMRC-1 (Kidney Carcinoma)
In short: as §1

[11] = system: ML-2 (Acute Myeloid Leukemia)
In short: as §1

[12] = system: DU-145 (Prostate Carcinoma)
In short: as §1

[13] = system: NCI-H522 (Lung Adenocarcinoma)
In short: as §1

[14] = system: ME-180 (Cervical Carcinoma)
In short: as §1

[15] = system: SW982 (Other Solid Carcinomas)
In short: as §1

[16] = system: MV-4-11 (Acute Myeloid Leukemia)
In short: as §1

[17] = system: SKN (Other Solid Carcinomas)
In short: as §1

With `CC1(C)CCC(CN2CCN(c3ccc(C(=O)NS(=O)(=O)c4ccc(NCC5CCOCC5)c([N+](=O)[O-])c4)c(Oc4cnc5[nH]ccc5c4)c3)CC2)=C(c2ccc(Cl)cc2)C1` [Venetoclax] + Cc1cc2ncnn2cc1Nc1ncc2c(n1)n(C1CCOCC1)c(=O)n2C [AZD7648] (first compound max 1 µM, 7x7, partner max 10 µM) the “combination Emax” value [1] was 0.416, the “combination Emax” value [2] was 0.616 and the “combination Emax” value [3] was 0.703. The “combination Emax” value (COLO-679 (Melanoma)) was 0.133, the “combination Emax” value [4] was 0.242 and the “combination Emax” value [5] was 0.344. For the same compound, the “combination Emax” value [6] was 0.471, the “combination Emax” value [7] was 0.445 and the “combination Emax” value (SK-N-AS (Neuroblastoma)) was 0.295. For the same compound, the “combination Emax” value (Hey (Ovarian Carcinoma)) was 0.328, the “combination Emax” value [8] was 0.109 and the “combination Emax” value [9] was 0.28. For the same compound, the “combination Emax” value [10] was 0.181, the “combination Emax” value [11] was 0.823 and the “combination Emax” value [12] was 0.137. For the same compound, the “combination Emax” value [13] was 0.112, the “combination Emax” value [14] was 0.268 and the “combination Emax” value [15] was 0.27. For the same compound, the “combination Emax” value [16] was 1 and the “combination Emax” value [17] was 0.257.
With `CC1(C)CCC(CN2CCN(c3ccc(C(=O)NS(=O)(=O)c4ccc(NCC5CCOCC5)c([N+](=O)[O-])c4)c(Oc4cnc5[nH]ccc5c4)c3)CC2)=C(c2ccc(Cl)cc2)C1` [Venetoclax] + Cn1cnc2c(F)c(Nc3ccc(Br)cc3Cl)c(C(=O)NOCCO)cc21 [Selumetinib] (first compound max 1 µM, 7x7, partner max 3 µM) the “combination Emax” value [1] was 0.413, the “combination Emax” value [2] was 0.618 and the “combination Emax” value [3] was 0.632. For the same compound, the “combination Emax” value (COLO-679 (Melanoma)) was 0.737, the “combination Emax” value [4] was 0.236 and the “combination Emax” value [5] was 0.165. For the same compound, the “combination Emax” value [6] was 0.246, the “combination Emax” value [7] was 0.451 and the “combination Emax” value (SK-N-AS (Neuroblastoma)) was 0.647. The “combination Emax” value (Hey (Ovarian Carcinoma)) was 0.55, the “combination Emax” value [8] was 0.683 and the “combination Emax” value [9] was 0.264. For the same compound, the “combination Emax” value [10] was 0.135, the “combination Emax” value [11] was 1 and the “combination Emax” value [12] was 0.184. For the same compound, the “combination Emax” value [13] was 0.0772, the “combination Emax” value [14] was 0.256 and the “combination Emax” value [15] was 0.242. The “combination Emax” value [16] was 1 and the “combination Emax” value [17] was 0.136.
